Here are results for three compounds from publication PMC5938026 (Experimental & Molecular Medicine, 2018).

Molecules are shown by their SMILES.

Sequence of Kv1.5 (P19024 whole entry): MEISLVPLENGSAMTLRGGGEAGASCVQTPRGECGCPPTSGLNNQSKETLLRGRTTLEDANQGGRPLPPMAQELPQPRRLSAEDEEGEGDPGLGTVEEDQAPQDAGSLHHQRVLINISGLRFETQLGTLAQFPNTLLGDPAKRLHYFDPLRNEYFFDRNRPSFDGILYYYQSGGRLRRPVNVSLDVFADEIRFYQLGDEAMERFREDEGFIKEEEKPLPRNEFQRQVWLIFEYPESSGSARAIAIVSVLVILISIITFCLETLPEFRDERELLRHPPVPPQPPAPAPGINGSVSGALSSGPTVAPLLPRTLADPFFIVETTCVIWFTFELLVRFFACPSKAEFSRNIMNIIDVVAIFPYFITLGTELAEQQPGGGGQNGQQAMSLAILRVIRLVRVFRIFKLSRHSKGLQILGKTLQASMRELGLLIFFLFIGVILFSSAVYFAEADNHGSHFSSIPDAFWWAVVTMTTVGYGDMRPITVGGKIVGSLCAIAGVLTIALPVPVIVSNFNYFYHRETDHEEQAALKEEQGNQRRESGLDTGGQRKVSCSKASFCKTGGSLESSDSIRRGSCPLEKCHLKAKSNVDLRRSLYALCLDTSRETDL

The test concerns the target Kv1.5 (Rattus norvegicus, UniProt P19024). The test is described as follows: whole-cell patch clamp of CHO cells overexpressing Kv1.[…]. Format: cell-based. In general terms: Patch clamp records ionic current or voltage across a cell membrane.
In general, IC50 refers to the concentration that gives 50% inhibition. The low end stands for higher potency, the high end for lower potency. `CNC1(c2ccccc2Cl)CCCCC1=O` (racemic) [ketamine] had a 50% inhibitory concentration (IC50) of 641 ± 33.2 µM.

Regarding `C[C@]12N[C@H](Cc3ccccc31)c1ccccc12` [(+) MK801], 157 ± 14 µM corresponded to half-maximal inhibition (IC50).

`C[C@@]12N[C@@H](Cc3ccccc31)c1ccccc12` [(−) MK801] displayed an IC50 of 157 ± 7.9 µM.
